Drawing on PubChem BioAssay AID2060338 (Molecular Pharmacology Branch, DTP, NCI, 2025), this text covers IC50 and viability, T/C for five compounds.

The subject of the assay is 556581-035-R-J1-PDC spheroids with HUVEC/MSC, viability. Nature of the assay: Anticancer human tumor 556581-035-R-J1-PDC patient-derived ovarian carcinoma cell line growth inhibition [IpAb]. The note with it: for viability, T/C: stronger effect = lower value. The procedure, abridged: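 Spheroids of 60% malignant cells, 25% HUVEC and 15% MSC were exposed to targeted agents combined with ipatasertib or abemaciclib. Doses started at or near clinical Cmax (10 microM when unknown) and fell in half-log steps.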

Where [1] appears, read: curve of first compound, second compound 0.1 µM.
Where [2] appears, read: curve of first compound, second compound 0.316 µM.
[3] abbreviates: curve of first compound, second compound 1 µM.
Where [4] appears, read: curve of first compound, second compound 0.01 µM.
[5] abbreviates: curve of first compound, second compound 0.0316 µM.
Setting [6] is: second compound 0.01 µM, first compound 0.0316 µM.
Setting [7] is: second compound 0.01 µM, first compound 0.1 µM.
Where [8] appears, read: second compound 0.01 µM, first compound 0.316 µM.
The mark [9] stands for this setting: second compound 0.01 µM, first compound 1 µM.
[10] abbreviates: second compound 0.01 µM, first compound 3.16 µM.
[11] abbreviates: second compound 0.01 µM, first compound 10 µM.
Where [12] appears, read: second compound 0.0316 µM, first compound 0.0316 µM.
The mark [13] stands for this setting: second compound 0.0316 µM, first compound 0.1 µM.
Setting [14] is: second compound 0.0316 µM, first compound 0.316 µM.
The mark [15] stands for this setting: second compound 0.0316 µM, first compound 1 µM.
The mark [16] stands for this setting: second compound 0.0316 µM, first compound 3.16 µM.
[17] abbreviates: second compound 0.0316 µM, first compound 10 µM.
The mark [18] stands for this setting: second compound 0.1 µM, first compound 0.0316 µM.
Where [19] appears, read: second compound 0.1 µM, first compound 0.1 µM.
Where [20] appears, read: second compound 0.1 µM, first compound 0.316 µM.
Where [21] appears, read: second compound 0.1 µM, first compound 1 µM.
Setting [22] is: second compound 0.1 µM, first compound 3.16 µM.
[23] abbreviates: second compound 0.1 µM, first compound 10 µM.
Where [24] appears, read: second compound 0.316 µM, first compound 0.0316 µM.
The mark [25] stands for this setting: second compound 0.316 µM, first compound 0.1 µM.
The mark [26] stands for this setting: second compound 0.316 µM, first compound 0.316 µM.
[27] abbreviates: second compound 0.316 µM, first compound 1 µM.
Where [28] appears, read: second compound 0.316 µM, first compound 3.16 µM.
Setting [29] is: second compound 0.316 µM, first compound 10 µM.
Setting [30] is: second compound 1 µM, first compound 0.0316 µM.
Where [31] appears, read: second compound 1 µM, first compound 0.1 µM.
[32] abbreviates: second compound 1 µM, first compound 0.316 µM.
Setting [33] is: second compound 1 µM, first compound 1 µM.
Setting [34] is: second compound 1 µM, first compound 3.16 µM.
Setting [35] is: second compound 1 µM, first compound 10 µM.

Where “and” joins values, the source holds several entries; their conditions need not be identical. Equal entries are not always repeated.
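Further: spheroids exposed to compounds for 7 days before readout.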

Consider `CC(C)(C)c1cnc(CSc2cnc(NC(=O)C3CCNCC3)s2)o1` + CC(C)NCC(C(=O)N1CCN(c2ncnc3c2C(C)CC3O)CC1)c1ccc(Cl)cc1, for which the IC50 (in general, the concentration at which inhibition is half-maximal) under setting [1] was found to be 0.107 µM; the IC50 under setting [2] was 0.137 µM; the IC50 under setting [3] is 0.0552 µM; the IC50 (curve of first compound, second compound 3.16 µM) was found to be 0.0429 µM; the IC50 (curve of first compound, second compound 10 µM) is less than 0.00949 µM. In addition, the viability, T/C (commonly the ratio of treated to control) is, setting by setting: (second compound 0.1 µM, first compound 0.00949 µM) 86.1%; (second compound 0.1 µM, first compound 0.03 µM) 116%; (second compound 0.1 µM, first compound 0.0949 µM) 55.3%; (second compound 0.1 µM, first compound 0.3 µM) 3.48%; (second compound 0.1 µM, first compound 0.949 µM) 3.84%; (second compound 0.1 µM, first compound 3 µM) 2.08%. For the same compound, the viability, T/C (second compound 0.316 µM, first compound 0.00949 µM) is 81.1%; the viability, T/C (second compound 0.316 µM, first compound 0.03 µM) was 89.9%; the viability, T/C (second compound 0.316 µM, first compound 0.0949 µM) was 71.9%; the viability, T/C (second compound 0.316 µM, first compound 0.3 µM) is 3.02%; the viability, T/C (second compound 0.316 µM, first compound 0.949 µM) is 2.73%; the viability, T/C (second compound 0.316 µM, first compound 3 µM) is 3.48%. For the same compound, the viability, T/C (second compound 1 µM, first compound 0.00949 µM) was 64.6%; the viability, T/C (second compound 1 µM, first compound 0.03 µM) is 65.4%; the viability, T/C (second compound 1 µM, first compound 0.0949 µM) was 36.7%; the viability, T/C (second compound 1 µM, first compound 0.3 µM) was 2.25%; the viability, T/C (second compound 1 µM, first compound 0.949 µM) was 2.57%; the viability, T/C (second compound 1 µM, first compound 3 µM) is 3.16%. For the same compound, the viability, T/C was 56.4% (second compound 3.16 µM, first compound 0.00949 µM); 55.7% (second compound 3.16 µM, first compound 0.03 µM); 36.6% (second compound 3.16 µM, first compound 0.0949 µM); 2.16% (second compound 3.16 µM, first compound 0.3 µM); 3.96% (second compound 3.16 µM, first compound 0.949 µM); 2.31% (second compound 3.16 µM, first compound 3 µM). Further, the viability, T/C runs as follows: (second compound 10 µM, first compound 0.00949 µM) 46.1%; (second compound 10 µM, first compound 0.03 µM) 44.2%; (second compound 10 µM, first compound 0.0949 µM) 11.5%; (second compound 10 µM, first compound 0.3 µM) 2.21%; (second compound 10 µM, first compound 0.949 µM) 1.45%; (second compound 10 µM, first compound 3 µM) 1.36%.

As to `CC(C)(C)c1cnc(CSc2cnc(NC(=O)C3CCNCC3)s2)o1`, the viability, T/C is, setting by setting: (compound 0.00949 µM) 104% and 105%; (compound 0.03 µM) 116% and 106%; (compound 0.0949 µM) 62.5% and 81%; (compound 0.3 µM) 2.65% and 4.27%; (compound 0.949 µM) 3.19% and 3.08%; (compound 3 µM) 4.63% and 2.13%. The IC50 (curve of compound) was 0.121 µM and 0.151 µM.

On to `Cn1ncc(Cl)c1-c1cc(C(=O)NC(CN)Cc2cccc(F)c2)sc1Cl` (centres undefined), for which the viability, T/C is 90.6% and 96.9% (compound 0.0316 µM); 81% and 74.5% (compound 0.1 µM); 71.5% and 69.2% (compound 0.316 µM); 60.2% and 70.8% (compound 1 µM); 52.5% and 47.6% (compound 3.16 µM); 0.3% and 0.29% (compound 10 µM). For the setting “curve of compound”, the IC50 is 2.32 µM and 2.41 µM.

On to `C=CC(=O)N1CCN(c2nc(=O)n(-c3c(C)ccnc3C(C)C)c3nc(-c4c(O)cccc4F)c(F)cc23)C(C)C1` (centres undefined) + CCN1CCN(Cc2ccc(Nc3ncc(F)c(-c4cc(F)c5nc(C)n(C(C)C)c5c4)n3)nc2)CC1, for which the IC50 reads like this: under setting [4], 7.37 µM; under setting [5], 7.29 µM; under setting [1], 7.02 µM; under setting [2], 4.11 µM; under setting [3], 0.143 µM. For the same compound, the viability, T/C was 102% under setting [6]; 108% under setting [7]; 105% under setting [8]; 119% under setting [9]; 91% under setting [10]; 35.2% under setting [11]. In addition, the viability, T/C reads like this: under setting [12], 91.2%; under setting [13], 107%; under setting [14], 104%; under setting [15], 107%; under setting [16], 108%; under setting [17], 29.7%. Also, the viability, T/C runs as follows: under setting [18], 94.1%; under setting [19], 109%; under setting [20], 103%; under setting [21], 124%; under setting [22], 94.4%; under setting [23], 30.1%. Moreover, the viability, T/C is 85.3% under setting [24]; 93.3% under setting [25]; 108% under setting [26]; 106% under setting [27]; 56.4% under setting [28]; 28.1% under setting [29]. Also, the viability, T/C reads like this: under setting [30], 50.1%; under setting [31], 50.2%; under setting [32], 51.6%; under setting [33], 42%; under setting [34], 34.2%; under setting [35], 17.6%.

With `Cn1ncc(Cl)c1-c1cc(C(=O)NC(CN)Cc2cccc(F)c2)sc1Cl` (centres undefined) + CCN1CCN(Cc2ccc(Nc3ncc(F)c(-c4cc(F)c5nc(C)n(C(C)C)c5c4)n3)nc2)CC1, the IC50 under setting [4] is 1.61 µM; the IC50 under setting [5] turned out to be 1.8 µM; the IC50 under setting [1] came to 1.54 µM; the IC50 under setting [2] was 1.17 µM; the IC50 under setting [3] was 0.402 µM. The viability, T/C under setting [6] was 96%; the viability, T/C under setting [7] is 81.6%; the viability, T/C under setting [8] is 64.2%; the viability, T/C under setting [9] is 60.7%; the viability, T/C under setting [10] was 44.3%; the viability, T/C under setting [11] is 0.26%. Further, the viability, T/C runs as follows: under setting [12], 85.4%; under setting [13], 78.5%; under setting [14], 79.1%; under setting [15], 56.9%; under setting [16], 41.1%; under setting [17], 0.2%. For the same compound, the viability, T/C reads like this: under setting [18], 91.4%; under setting [19], 82.2%; under setting [20], 63.9%; under setting [21], 54.2%; under setting [22], 47.1%; under setting [23], 0.18%. For the same compound, the viability, T/C reads like this: under setting [24], 88.5%; under setting [25], 92.3%; under setting [26], 54.8%; under setting [27], 60.6%; under setting [28], 31.5%; under setting [29], 12.4%. The viability, T/C under setting [30] was 56.7%; the viability, T/C under setting [31] was 54.3%; the viability, T/C under setting [32] was 50.5%; the viability, T/C under setting [33] is 44.7%; the viability, T/C under setting [34] was 25.6%; the viability, T/C under setting [35] is 0.54%.
